Reference: patent US7009045B2 (priority 2000, dated 2006)

Columns and labels:
Assay type in all cases: cell-based
[1] = system: Candida famata regulatory mutants able to overproduce riboflavin; assay: Sensitivity to Co^+2 ions, solid Burkholder medium (Table 16); set-up: key: +++: strong growth; ++: weak growth; +: very weak growth; —: absence of growth
Protocol: The sensitivity of the regulatory mutants of the yeast C. famata which overproduce riboflavin in iron rich medium probably due to defects in genes regulating repression (repression mutants), to different ions of heavy metals was studied. For this, the analyzed strains were streaked on the YPD plates and then were replica-plated on Burkholder synthetic medium containing leucine (40 μg/ml). The C.famata mutants L20105-40-1-11, L20105-40-1-17, L20105-3-2-1, L20105-3-2-8 and L20105-3-2-12 (all contained leu2 marker) accumulated 80–100 μg riboflavin/ml. The mutants #75, 4-48, 2-5 produced much higher amounts of riboflavin (200–250 μg/ml) but were prototrophs for leucine synthesis. Strain #75 was characterized by retarded growth comparing with other mutants. The strains VKM Y-9 (wild type) and L20105 (leu2) were used as the control strains.

[2] = system: Candida famata wild type and regulatory mutants able to overproduce riboflavin on iron-rich medium; assay: Sensitivity after electroporation to K2Cr2O7, Burkholder medium with 1% ethanol (Table 17); settings: K2Cr2O7 15–50 μM
Text: The strategy for the cloning of the genes regulating derepression of riboflavin in C. famata was developed using regulatory mutants 2-5 and 4-48 which accumulate elevated amounts of riboflavin in the medium with high iron content. The method for positive selection of the transformants which, after transformation with C. famata gene library, would lose the ability to overproduce riboflavin in iron rich medium, was developed. For this, the difference in sensitivity to Cr^+6 ions (as K2Cr2O7) between C. famata wild strain VKM Y-9 and overproducers of riboflavin 2-5 and 4-48 after their electroporation with the C. famata gene library constructed on pCfARS1614, was studied.
Toxicity of Cr^+6 was studied on agar plates containing different carbon sources (sucrose, glycerol, ethanol). Before the electroporated cells were plated on ethanol and glycerol medium, the cells were washed 3 times with 10 fold volumes of 0.6 M KCl and the suspension volumes were adjusted with 0.6 M KCl to 100 μl. On each plate containing glycerol (0.5%) or ethanol (1%), 0.6 M KCl and different concentrations (10–200 uM) of K2Cr2O7, in a 30–60 μl suspension were spread. Where sucrose was used as a carbon source, this sugar was used at a 0.3M concentration, using it as both as a carbon source and osmotic stabilizer.

[3] = system: Pichia guilliermondii wild type and regulatory mutants (rib81); assay: Sensitivity after electroporation to K2Cr2O7, medium with 0.5% glycerol (Table 21); set-up: key: +++: strong growth; ++: weak growth; —: absence of growth
Text: The possibility for positive selection of P. guilliermondii rib81 transformants unable to overproduce riboflavin in minimal medium was studied. For this, the toxicity of K2Cr2O7 (Cr^+6) was compared for the P. guilliermondii wild-type strain ATCC 9058 and regulatory mutants P. guilliermondii rib81 9-20 and 20-2. The cells were pregrown in liquid YPD to OD 1.5–2.0 (540 nm) and electroporated according to the protocol described (Example 34). Electroporated cells were washed three times with 10×volume of 0.6 M KCl and then the volume was adjusted to 1 ml. Then the cells were plated at 0.2 ml suspension per plate which contained 0.5% glycerol, 0.6 M KCl and K2Cr2O7 (50–1000 μM).
The visual selection of the non-overproducing riboflavin transformants is rather arbitrary and uncertain. Therefore it was decided to develop the method for positive selection of the transformants using tentative differences in sensitivity to K2Cr2O7 of wild-type P. guilliermondii and the regulatory mutants rib81 9-20 and 20-2. After 6 days of cultivation in the medium with 0.5% glycerol, it was shown that K2Cr2O7 at 150–180 μM inhibited growth of regulatory mutant 9-20 more strongly than that of the wild strain (Table 21).

Structure (SMILES): [Cl-].[Cl-].[Co+2] [CoCl2]
- growth ([1]; #2-5, Co^+2 3.75 μg/ml): +
- growth ([1]; #75, Co^+2 2.5 μg/ml): +
- growth ([1]; L20105-3-2-1, Co^+2 3.75 μg/ml): +
- growth ([1]; L20105-3-2-8, Co^+2 3.75 μg/ml): +
- growth ([1]; L20105-3-2-8, Co^+2 5.0 μg/ml): +
- growth ([1]; L20105-3-2-9, Co^+2 3.75 μg/ml): +
- growth ([1]; L20105-3-2-12, Co^+2 3.75 μg/ml): +
- growth ([1]; L20105-3-2-12, Co^+2 5.0 μg/ml): +
- growth ([1]; L20105-40-1-11, Co^+2 3.75 μg/ml): +

Structure (SMILES): [K+].[K+].[O]=[Cr](=[O])([O-])[O][Cr](=[O])(=[O])[O-] [K2Cr2O7]
- growth of the wild-type strain [2]: almost uninhibited
- growth ([3]; #9-20 (leu2), K2Cr2O7 75 μM): +++
- growth ([3]; #9-20 (leu2), K2Cr2O7 100 μM): ++
- growth ([3]; #9-20 (leu2), K2Cr2O7 150 μM): —
- growth ([3]; #9-20 (leu2), K2Cr2O7 185 μM): —
- growth ([3]; #9-20 (leu2), K2Cr2O7 240 μM): —
- growth ([3]; ATCC9058, K2Cr2O7 75 μM): +++
- growth ([3]; ATCC9058, K2Cr2O7 100 μM): +++
- growth ([3]; ATCC9058, K2Cr2O7 125 μM): +++
- growth ([3]; ATCC9058, K2Cr2O7 150 μM): +++
- growth ([3]; ATCC9058, K2Cr2O7 185 μM): ++
- growth ([3]; ATCC9058, K2Cr2O7 240 μM): —
